Two molecules from patent US20120220455A1, “Azolylmethyloxiranes, Their Use for Controlling Phytopathogenic Fungi and Compositions Comprising Them” (BASF SE, priority 2006, published 2012) can be followed below.

The test system of this assay is Alternaria solani. The experiment in a line: Efficacy against early blight of tomato caused by Alternaria solani (Alteso P1), greenhouse. The class given is in vivo. Conditions: Comparative Example 1, potted tomato plants, visual rating after 5 days. As for the experimental part: The active compounds were prepared separately or jointly as a stock solution comprising 25 mg of active compound which was made up to 10 ml using a mixture of acetone and/or DMSO and the emulsifier Wettol EM 31 (wetting agent having emulsifying and dispersing action based on ethoxylated alkylphenols) in a volume ratio of solvent/emulsifier of 99:1. The mixture was then made up to 100 ml with water. This stock solution was diluted with the solvent/emulsifier/water mixture described to give the concentration of active compounds stated below. Leaves of potted tomato plants were sprayed to runoff point with an aqueous suspension having the active compound concentration stated below. The next day, the leaves were inoculated with an aqueous spore suspension of Alternaria solani in a 2% biomalt solution. The plants were then placed in a water vapor-saturated chamber at temperatures between 20 and 22° C. After 5 days, the disease on the untreated but infected control plants had developed to such an extent that the infection could be determined visually in %. […]

For the molecule `COc1ccc([C@@]2(Cn3cncn3)O[C@@H]2c2ccccc2Cl)c(F)c1` (racemic) [Compound 14.10], the “Infection in % at 63 ppm for Alteso P1” value stood at 5%.

Consider `COc1ccc(C2(Cn3cncn3)OC2c2ccccc2Cl)cc1` (centres unmarked) [As described in EP-A 0 196 038], for which the “Infection in % at 63 ppm for Alteso P1” value worked out at 90%.
